# Results published in patent US20240374737A1, “ERK5 DEGRADERS AND USES THEREOF” (DANA-FARBER CANCER INSTITUTE, INC., priority 2021, published 2024).
# Experiments:
# ERK5 [1] = target: T1, ERK5 (Homo sapiens, UniProt Q13164); assay: ERK5 degradation immunoblot in Molt4 cells; assay type: cell-based; settings: for ERK5 degradation (immunoblot): 0.1 μM or 1 μM; for ERK5 degradation (immunoblot) / concentration at which ERK5 degradation is seen (as low as / up to): 5 hours
# T1 construct: endogenous in cells; host or cells: Molt4 cells
# Description: Molt4 cells were maintained in RPMI 1640 supplemented with 10% FBS and 100 U/mL Penicillin-Streptomycin at 37° C. in the presence of 5% CO2. […] The cells were then lysed with RIPA buffer containing phosphatase/protease inhibitor, and cell extracts were precleared by centrifugation at 21000×g for 5 minutes at 4° C. The Pierce BCA protein assay kit was used to assess protein lysate concentration and normalized using SDS sample buffer. Lysates were resolved on 4-12% Tris-Base gels and transferred to an Immuno-Blot PVDF membrane. The membrane was blocked for 1 hour, then incubated with primary antibodies against ERK5 (Cell Signaling) and j-Actin (Cell Signaling). The next day, membranes were washed with TBS-T, then incubated at room temperature for 1 hour with IRDye@800-labeled goat anti-rabbit IgG and IRDye@800-labeled goat anti-mouse IgG (LI-COR) secondary antibodies. The membranes were detected on Odyssey® CLx system.
# ERK5 [2] = target: T1, ERK5; assay: Multiplexed tandem mass tag quantitative mass spectrometry proteomics in Molt4 cells; assay type: cell-based; settings: 100 nM, 5 hours, vs DMSO vehicle
# Description: FIG. 3 is a scatterplot that depicts the change in relative protein abundance of compound 2 (100 nM, 5 h)-treated MOLT4 cells compared with DMSO vehicle control-treated cells. Protein abundance measurements were made using tandem mass tag quantitative mass spectrometry. The log 2fold change (log 2FC) is shown on the y axis and negative log 10p value (−log 10p value) on the x axis.
# T1 sequence (Q13164 whole entry): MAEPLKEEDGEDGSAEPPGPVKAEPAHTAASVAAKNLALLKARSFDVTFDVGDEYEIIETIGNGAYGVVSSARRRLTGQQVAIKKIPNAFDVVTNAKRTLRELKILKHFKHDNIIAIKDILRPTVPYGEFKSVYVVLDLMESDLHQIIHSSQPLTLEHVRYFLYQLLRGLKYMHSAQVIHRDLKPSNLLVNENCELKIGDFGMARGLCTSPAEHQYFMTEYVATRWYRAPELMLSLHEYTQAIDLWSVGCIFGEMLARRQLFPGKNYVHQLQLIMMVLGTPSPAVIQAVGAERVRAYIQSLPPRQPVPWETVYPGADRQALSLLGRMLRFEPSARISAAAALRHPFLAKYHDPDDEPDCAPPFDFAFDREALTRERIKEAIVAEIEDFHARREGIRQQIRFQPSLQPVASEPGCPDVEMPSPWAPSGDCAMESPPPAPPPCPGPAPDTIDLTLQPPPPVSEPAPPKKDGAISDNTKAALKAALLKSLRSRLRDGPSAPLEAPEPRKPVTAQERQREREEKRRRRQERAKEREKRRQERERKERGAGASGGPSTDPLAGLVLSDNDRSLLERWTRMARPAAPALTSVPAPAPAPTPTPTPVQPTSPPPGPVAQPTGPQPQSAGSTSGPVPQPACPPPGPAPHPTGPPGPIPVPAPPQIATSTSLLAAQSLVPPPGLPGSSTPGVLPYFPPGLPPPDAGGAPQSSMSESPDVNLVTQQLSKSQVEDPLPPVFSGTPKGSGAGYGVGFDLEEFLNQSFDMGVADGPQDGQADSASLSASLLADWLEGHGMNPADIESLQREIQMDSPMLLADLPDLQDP
concentration at which ERK5 degradation is seen (as low as / up to) (ERK5 [1]) [µM],"time of treatment within which ERK5 degradation is induced (ERK5 [1]; 0.1 μM and 1 μM, time course 1 h, 2 h, 3 h, 4 h) [h]","VHL dependence of ERK5 degradation (ERK5 [1]; 5 h, compared with negative control)",concentration at which ERK5 degradation is induced (as low as) (ERK5 [1]; 5 hours of treatment) [nM],SMILES,ERK5 degradation (immunoblot) (ERK5 [1]),change in relative protein abundance (proteome-wide selectivity) (ERK5 [2])
> 5,–,–,–,"Cc1ncsc1-c1ccc([C@H](C)NC(=O)[C@H]2C[C@H](O)CN2C(=O)[C@@H](NC(=O)CCCCCN2CCN(c3ccc4c(C5CCN(C(=O)c6ccc(OC(F)(F)F)cc6N)CC5)ncnc4c3)CC2)C(C)(C)C)cc1 [compound 13, (2R,4S)-1-((S)-2-(6-(4-(4-(1-(2-amino-4-(trifluoromethoxy)benzoyl)piperidin-4-yl)quinazolin-7-yl)piperazin-1-yl)hexanamido)-3,3-dimethylbutanoyl)-4-hydroxy-N—((S)-1-(4-(4-methylthiazol-5-yl)phenyl)ethyl)pyrrolidine-2-carboxamide, reference compound]",did not recruit the VHL E3 ligase or induce ERK5 degradation,–
≤ 0.05,≤ 2,degraded ERK5 in a VHL-dependent manner,≤ 50,"Cc1ncsc1-c1ccc([C@H](C)NC(=O)[C@@H]2C[C@@H](O)CN2C(=O)[C@@H](NC(=O)CCCCCN2CCN(c3ccc4c(C5CCN(C(=O)c6ccc(OC(F)(F)F)cc6N)CC5)ncnc4c3)CC2)C(C)(C)C)cc1 [compound 2, (2S,4R)-1-((S)-2-(6-(4-(4-(1-(2-amino-4-(trifluoromethoxy)benzoyl)piperidin-4-yl)quinazolin-7-yl)piperazin-1-yl)hexanamido)-3,3-dimethylbutanoyl)-4-hydroxy-N—((S)-1-(4-(4-methylthiazol-5-yl)phenyl)ethyl)pyrrolidine-2-carboxamide]",potently degraded ERK5,significant downregulation of only ERK5 protein levels
